Test results taken from PubChem BioAssay AID1963979 (Molecular Pharmacology Branch, DTP, NCI, 2024).

Test system: 361931-004-R-J1-PDC multicell spheroid viability
Test: Anticancer human tumor 361931-004-R-J1-PDC patient-derived colon adenocarcinoma cell line growth inhibition [PI3K]
Details: for IC50: curve of first compound; for viability, T/C: stronger effect = lower value
How it was run: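 Agents were dosed from a top concentration near clinical Cmax (otherwise 10 microM) in half-log decrements, alone or combined with PI3K inhibitors. The spheroids contain tumor cells plus endothelial (HUVEC) and MSC stroma; viability is measured.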

[1] = second compound 0.0316 µM, first compound 0.0316 µM
[2] = second compound 0.0316 µM, first compound 0.1 µM
[3] = second compound 0.1 µM, first compound 0.0316 µM
[4] = second compound 0.1 µM, first compound 0.1 µM
[5] = second compound 0.316 µM, first compound 0.0316 µM
[6] = second compound 0.316 µM, first compound 0.1 µM
[7] = second compound 1 µM, first compound 0.0316 µM
[8] = second compound 1 µM, first compound 0.1 µM
[9] = second compound 3.16 µM, first compound 0.0316 µM
[10] = second compound 3.16 µM, first compound 0.1 µM
[11] = second compound 10 µM, first compound 0.0316 µM
[12] = second compound 10 µM, first compound 0.1 µM
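Further: spheroids exposed to agents for seven days before readout.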

SMILES: C[C@@H](NC(=O)c1ncnc(N)c1Cl)c1ncc(C(=O)Nc2cc(C(F)(F)F)c(Cl)cn2)s1 + CC(Nc1ncnc2nc[nH]c12)c1cc2cccc(Cl)c2c(=O)n1-c1ccccc1
- IC50 (second compound 0.0316 µM): > 10 µM
- IC50 (second compound 0.1 µM): > 10 µM
- IC50 (second compound 0.316 µM): > 10 µM
- IC50 (second compound 1 µM): > 10 µM
- IC50 (second compound 3.16 µM): > 10 µM
- IC50 (second compound 10 µM): > 10 µM
- viability, T/C [1]: 105%
- viability, T/C [2]: 102%
- viability, T/C (second compound 0.0316 µM, first compound 0.316 µM): 99.2%
- viability, T/C (second compound 0.0316 µM, first compound 1 µM): 94.1%
- viability, T/C (second compound 0.0316 µM, first compound 3.16 µM): 104%
- viability, T/C (second compound 0.0316 µM, first compound 10 µM): 98%
- viability, T/C [3]: 101%
- viability, T/C [4]: 101%
- viability, T/C (second compound 0.1 µM, first compound 0.316 µM): 96%
- viability, T/C (second compound 0.1 µM, first compound 1 µM): 95.3%
- viability, T/C (second compound 0.1 µM, first compound 3.16 µM): 104%
- viability, T/C (second compound 0.1 µM, first compound 10 µM): 94.6%
- viability, T/C [5]: 105%
- viability, T/C [6]: 103%
- viability, T/C (second compound 0.316 µM, first compound 0.316 µM): 107%
- viability, T/C (second compound 0.316 µM, first compound 1 µM): 104%
- viability, T/C (second compound 0.316 µM, first compound 3.16 µM): 106%
- viability, T/C (second compound 0.316 µM, first compound 10 µM): 93.7%
- viability, T/C [7]: 98.8%
- viability, T/C [8]: 99.9%
- viability, T/C (second compound 1 µM, first compound 0.316 µM): 107%
- viability, T/C (second compound 1 µM, first compound 1 µM): 103%
- viability, T/C (second compound 1 µM, first compound 3.16 µM): 106%
- viability, T/C (second compound 1 µM, first compound 10 µM): 91.7%
- viability, T/C [9]: 88.6%
- viability, T/C [10]: 110%
- viability, T/C (second compound 3.16 µM, first compound 0.316 µM): 107%
- viability, T/C (second compound 3.16 µM, first compound 1 µM): 99.5%
- viability, T/C (second compound 3.16 µM, first compound 3.16 µM): 107%
- viability, T/C (second compound 3.16 µM, first compound 10 µM): 101%
- viability, T/C [11]: 101%
- viability, T/C [12]: 96.7%
- viability, T/C (second compound 10 µM, first compound 0.316 µM): 107%
- viability, T/C (second compound 10 µM, first compound 1 µM): 107%
- viability, T/C (second compound 10 µM, first compound 3.16 µM): 104%
- viability, T/C (second compound 10 µM, first compound 10 µM): 87.7%

SMILES: Cn1ncnc1[C@H]1c2n[nH]c(=O)c3cc(F)cc(c23)N[C@@H]1c1ccc(F)cc1 + CC(Nc1ncnc2nc[nH]c12)c1cc2cccc(Cl)c2c(=O)n1-c1ccccc1
- IC50 (second compound 0.0316 µM): > 0.1 µM
- IC50 (second compound 0.1 µM): > 0.1 µM
- IC50 (second compound 0.316 µM): > 0.1 µM
- IC50 (second compound 1 µM): > 0.1 µM
- IC50 (second compound 3.16 µM): > 0.1 µM
- IC50 (second compound 10 µM): > 0.1 µM
- viability, T/C (second compound 0.0316 µM, first compound 0.000316 µM): 97.9%
- viability, T/C (second compound 0.0316 µM, first compound 0.001 µM): 106%
- viability, T/C (second compound 0.0316 µM, first compound 0.00316 µM): 102%
- viability, T/C (second compound 0.0316 µM, first compound 0.01 µM): 99.1%
- viability, T/C [1]: 107%
- viability, T/C [2]: 106%
- viability, T/C (second compound 0.1 µM, first compound 0.000316 µM): 110%
- viability, T/C (second compound 0.1 µM, first compound 0.001 µM): 104%
- viability, T/C (second compound 0.1 µM, first compound 0.00316 µM): 109%
- viability, T/C (second compound 0.1 µM, first compound 0.01 µM): 103%
- viability, T/C [3]: 101%
- viability, T/C [4]: 108%
- viability, T/C (second compound 0.316 µM, first compound 0.000316 µM): 107%
- viability, T/C (second compound 0.316 µM, first compound 0.001 µM): 108%
- viability, T/C (second compound 0.316 µM, first compound 0.00316 µM): 103%
- viability, T/C (second compound 0.316 µM, first compound 0.01 µM): 97%
- viability, T/C [5]: 105%
- viability, T/C [6]: 100%
- viability, T/C (second compound 1 µM, first compound 0.000316 µM): 99.5%
- viability, T/C (second compound 1 µM, first compound 0.001 µM): 99%
- viability, T/C (second compound 1 µM, first compound 0.00316 µM): 102%
- viability, T/C (second compound 1 µM, first compound 0.01 µM): 95.2%
- viability, T/C [7]: 97.8%
- viability, T/C [8]: 95.2%
- viability, T/C (second compound 3.16 µM, first compound 0.000316 µM): 102%
- viability, T/C (second compound 3.16 µM, first compound 0.001 µM): 111%
- viability, T/C (second compound 3.16 µM, first compound 0.00316 µM): 107%
- viability, T/C (second compound 3.16 µM, first compound 0.01 µM): 101%
- viability, T/C [9]: 102%
- viability, T/C [10]: 102%
- viability, T/C (second compound 10 µM, first compound 0.000316 µM): 102%
- viability, T/C (second compound 10 µM, first compound 0.001 µM): 113%
- viability, T/C (second compound 10 µM, first compound 0.00316 µM): 102%
- viability, T/C (second compound 10 µM, first compound 0.01 µM): 100%
- viability, T/C [11]: 102%
- viability, T/C [12]: 98.5%
